Tested on: C. neoformans H99
Assay: Epsilometer test (E-test) with fluconazole strips
Type: cell-based
Details: YPD plates with 4456dh, fluconazole E-test strip, 37°C, 72 h, dose-dependent
Description: Inhibitors of Tps1 may work synergistically with known antifungal drugs. In C. glabrata, the trehalose biosynthesis mutant, tps2Δ, is more susceptible to fluconazole at 37°C ([40]). Therefore, we hypothesized that there might be synergy between 4456dh and fluconazole.
169 different concentrations (0.5mM, 1mM, and 5mM) and one was used as untreated control.
170 tps1/ tps1 deletion mutant was used as a negative control for filamentation in these assays. 10 µl
171 of cell suspension was directly used for imaging the filamentation status of the cells using the
172 Zeiss Axio Scope microscope attached to the Axiocam at 40X magnification. The images were
173 processed using Fiji (8) for the final presentation.
174 Epsilometer Test (E-test)
175 C. neoformans wild type (H99) was incubated in a shaking culture of YPD medium for 18 h at
176 30 °C. The culture was diluted to an OD600 0.6, diluted 10-fold in PBS, and 100 µL was spread
177 onto 60 X 15 mm YPD agar plates prepared with different concentrations of 4456dh. After the […]
190 (Zeiss). The size of the capsule of > 100 cells per 4456dh treatment was quantified using Image […]
247 was measured using a colorimetric glucose assay after treatment of cultures with trehalase. […]
249 Supplemental Figure 11. Quantification of capsule formation in C. neoformans treated with
250 4456dh. Images taken were analyzed with ImageJ. […]
251 were analyzed. […]

SMILES: Cn1cc(-c2csc(NC(=O)Cc3ccccn3)n2)cn1 [Compound 4456dh]
- synergy with fluconazole: detected synergy
